Assay results published in patent publication US10537603B2, “Pharmaceutical composition for preventing or treating angioedema, containing extract of peony root or mixture of peony root and licorice as active ingredient” (Korea Institute of Oriental Medicine, priority 2014, dated 2020).

Tests used:
[1] = system: human retinal pigment epithelial cell lines (ARPE-19); conditions: ARPE-19, Molecular Vision 2011; 17: 3512-3522; cited from earlier work
[2] = system: MNU-induced animal models; assay: Comparison of CJG30R and paeoniflorin in MNU-induced age-related macular degeneration model (ONL thickness); format: in vivo, C57BL/6 mice; conditions: CJG30R 100 mg/kg, PF 6.5 mg/kg oral
Description: The 6-week-old male C57BL/6 mice were used after acclimatization for 1 week. To induce damage and degeneration of photoreceptor cells among morphological changes of retinal tissues appearing in macular degeneration, 1% (0.05% acetic acid) N-methyl-N-nitrosourea (MNU, Sigma, USA) was intraperitoneally injected to the 7-week-old male C57BL/6 mice (60 mg/kg). The same amount of 0.05% acetic acid was intraperitoneally administered to the normal group. CJG30R (100 mg/kg) and PF-6.6 (6.5 mg/kg) as test drugs were suspended and compounded in 0.5% sodium carboxymethyl cellulose (CMC), orally administrated one day before MNU administration, and orally administrated once per day for 7 days after MNU administration. The same amount of 0.5% CMC was orally administrated to the normal group and the MNU-induced group. After completing administration of the test drugs, eyes were enucleated by carrying out an autopsy on the mice, and then mounted on 10% neutralized formalin for one day and embedded in paraffin to prepare slide sections. Slide sections were stained with Hematoxylin & Eosin (H & E) and observed under an optical microscope. The damage and degeneration of the photoreceptor cells were measured and evaluated by thickness changes in the outer nuclear layer of the retinal tissues.

[3] = system: advanced glycation end product (AGE) generation; assay: Inhibition of advanced glycation end product (AGE) generation, BSA with fructose/glucose, fluorescence; format: biochemical; conditions: BSA 10 mg/ml, 0.2 M fructose + 0.2 M glucose, 37° C., 7 days
Description: To determine the inhibitory effect of advanced glycation end product generation of the peony root extract, or the mixed extract of peony root and licorice, the present inventors used 10 mg/ml of bovine serum albumin (Sigma, St. Louis, Mo., USA) dissolved in 50 mM phosphate buffer (pH 7.4) as a protein source and a mixed liquid of 0.2 M fructose and 0.2 M glucose as a sugar source, respectively.
The extracts of <Example 1> and a positive control group (aminoguanidine) were dissolved in 30 μl of 0.2% DMSO, and then again dissolved in 15% tween 80. The protein source, the sugar source and the extracts of the present invention as prepared above were mixed and compounded to a total of 1 ml, and then each cultured at 37° C. for 7 days to allow for glycation. At this time 0.02% azide (sodium azide) was added thereto to prevent from generating bacteria during the culture period. After the culture fluorescence (spectrofluorometric detector; Bio-TEK, Synergy HT, USA; Ex: 350 nm; Em: 450 nm) was measured and then calculated with Equation 1 below, with showing the result in Table 2.

IC50, inhibitory effect of advanced glycation end product generation [3] [µg/mL]	SMILES	Effect on cell death due to H2O2 and oxidative stress [1]	Effect on outer nuclear layer damage as compared to the MNU administration group [2]	ONL thickness (AU) ([2]; MNU 60 mg/kg i.p., NOR 1.99 ± 0.21, MNU 0.92 ± 0.17)	ONL thickness (%) ([2]; NOR = 100, MNU = 0)
–	C[C@@]12C[C@@]3(O)O[C@@H](O1)[C@]1(COC(=O)c4ccccc4)[C@H]3C[C@@]12O[C@@H]1O[C@H](CO)[C@@H](O)[C@H](O)[C@H]1O [PF-6.5, paeoniflorin]	inhibitory effects	no effect at all	0.96 ± 0.17	3.52 ± 16.11
81.38 ± 2.70	N=C(N)NN [Aminoguanidine, aminoguanidine]	–	–	–	–
